Reference: PubChem BioAssay (NCI)
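A five-concentration, 48-hour dose response in 96-well plates underlies each endpoint, interpolated linearly between surrounding concentrations. TGI marks complete inhibition of growth.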

What was measured:
Assay in all cases: NCI anticancer screen, dose series, 48 h
A498 renal = test system: A498 renal
HCC-2998 colon = test system: HCC-2998 colon
HCT-116 colon = test system: HCT-116 colon
HL-60(TB) leukemia = test system: HL-60(TB) leukemia
KM12 colon = test system: KM12 colon
MOLT-4 leukemia = test system: MOLT-4 leukemia
NCI-H23 lung = test system: NCI-H23 lung
OVCAR-3 ovarian = test system: OVCAR-3 ovarian
OVCAR-4 ovarian = test system: OVCAR-4 ovarian
OVCAR-5 ovarian = test system: OVCAR-5 ovarian
RPMI-8226 leukemia = test system: RPMI-8226 leukemia
RXF 393 renal = test system: RXF 393 renal
SF-295 CNS = test system: SF-295 CNS
SN12C renal = test system: SN12C renal
U251 CNS = test system: U251 CNS
SK-OV-3 ovarian = test system: SK-OV-3 ovarian

| Compound | TGI (A498 renal) | TGI (HCC-2998 colon) | TGI (HCT-116 colon) | TGI (HL-60(TB) leukemia) | TGI (KM12 colon) | TGI (MOLT-4 leukemia) | TGI (NCI-H23 lung) | TGI (OVCAR-3 ovarian) | TGI (OVCAR-4 ovarian) | TGI (OVCAR-5 ovarian) | TGI (RPMI-8226 leukemia) | TGI (RXF 393 renal) | TGI (SF-295 CNS) | TGI (SN12C renal) | TGI (U251 CNS) | TGI (SK-OV-3 ovarian) |
| --- | --- | --- | --- | --- | --- | --- | --- | --- | --- | --- | --- | --- | --- | --- | --- | --- |
| CCOC(=O)/C(=C/c1ccccc1Br)P(=O)(OCC)OCC | 8.61 µM | 3.24 µM | 10.1 µM | 1.94 µM | 4.52 µM | 5.35 µM | 4.09 µM | 5.46 µM | 4.2 µM | 5.92 µM | 3.36 µM | 2.44 µM | 12.2 µM | 5.76 µM | 3.18 µM | – |
| O=C1NC(=O)C2C1C1C=C3c4ccccc4N(c4ccccc4)C32[C@H]2C(=O)NC(=O)[C@@H]12 (some centres not stated) | > 100 µM | > 100 µM | > 100 µM | > 100 µM | > 100 µM | > 100 µM | – | > 100 µM | > 100 µM | > 100 µM | > 100 µM | – | > 100 µM | > 100 µM | – | > 100 µM |
| CCCCCC#COC1CC(C)CC[C@@H]1C(C)C (some centres not stated) | – | > 100 µM | > 100 µM | 55 µM | > 100 µM | – | > 100 µM | > 100 µM | > 100 µM | > 100 µM | 69.7 µM | 86.9 µM | > 100 µM | > 100 µM | > 100 µM | > 100 µM |
| O=C(CCN1CCC(CCO)CC1)Nc1ccc2c(c1)C(=O)c1ccc(NC(=O)CCN3CCC(CCO)CC3)cc1C2=O | 92.8 µM | 88.7 µM | 31.2 µM | > 100 µM | 10.5 µM | 24.5 µM | > 100 µM | 24.7 µM | 63.2 µM | > 100 µM | 88.1 µM | > 100 µM | > 100 µM | > 100 µM | 23.8 µM | 46.3 µM |
| CC(=O)Oc1ccc(Nn2c3ccccc3c3ccccc32)c(C)c1 | – | 79.5 µM | > 100 µM | 63.2 µM | > 100 µM | 77.7 µM | > 100 µM | > 100 µM | – | > 100 µM | 58.5 µM | 80.4 µM | 73.7 µM | > 100 µM | > 100 µM | > 100 µM |
| O=C(Cc1ccccc1)N/N=C(/c1nc2ccc([N+](=O)[O-])cc2[nH]c1=O)C(O)c1ccccc1Cl (configuration not stated) | > 100 µM | > 100 µM | > 100 µM | > 100 µM | > 100 µM | > 100 µM | > 100 µM | – | > 100 µM | > 100 µM | > 100 µM | – | > 100 µM | > 100 µM | > 100 µM | > 100 µM |
| N#Cc1ccc(C(C2C(=O)NC(=O)NC2=O)C2C(=O)NC(=O)NC2=O)cc1 | – | > 100 µM | > 100 µM | > 100 µM | > 100 µM | > 100 µM | > 100 µM | > 100 µM | > 100 µM | > 100 µM | > 100 µM | – | > 100 µM | > 100 µM | > 100 µM | > 100 µM |
| O=C(Cc1ccccc1)N/N=C(/c1nc2ccc([N+](=O)[O-])cc2[nH]c1=O)C(O)c1ccc(C(O)/C(=N/NC(=O)Cc2ccccc2)c2nc3ccc([N+](=O)[O-])cc3[nH]c2=O)cc1 (configuration not stated) | > 100 µM | > 100 µM | > 100 µM | > 100 µM | – | – | > 100 µM | > 100 µM | > 100 µM | > 100 µM | > 100 µM | > 100 µM | > 100 µM | > 100 µM | – | > 100 µM |
| O=C1C=CC(=O)c2cc(Sc3ccccc3)c(=O)c(Sc3ccccc3)cc21 | > 100 µM | > 100 µM | > 100 µM | 27.7 µM | > 100 µM | > 100 µM | > 100 µM | > 100 µM | > 100 µM | – | > 100 µM | 51.2 µM | > 100 µM | > 100 µM | > 100 µM | > 100 µM |
| CC(=O)SC(SC(C)=O)SC(C)=O | > 100 µM | > 100 µM | > 100 µM | > 100 µM | > 100 µM | > 100 µM | > 100 µM | > 100 µM | > 100 µM | > 100 µM | – | > 100 µM | – | > 100 µM | > 100 µM | > 100 µM |
| CN(C)CC1CCCCCCCCCCCCC(CN(C)C)C1=O (configuration not stated) | 33 µM | 22.2 µM | 16.8 µM | – | 24 µM | 20.8 µM | 32 µM | 30.7 µM | 29.4 µM | 30.6 µM | – | 24 µM | 29.6 µM | 29.4 µM | 28 µM | 32.3 µM |
| CC(=O)Oc1c(Br)ccc2cc(C(Br)Br)c(C(=O)c3ccccc3)nc12 | – | 32.6 µM | 42.9 µM | – | 37.1 µM | 46.2 µM | 37.5 µM | – | 21.7 µM | 31.1 µM | – | 33.8 µM | 35.1 µM | 45.6 µM | 36.3 µM | – |
| CN(C)CCN(C)C(=O)C1CCCN1C(=O)OCc1ccccc1 (configuration not stated) | > 100 µM | > 100 µM | > 100 µM | > 100 µM | – | > 100 µM | > 100 µM | > 100 µM | > 100 µM | > 100 µM | > 100 µM | > 100 µM | > 100 µM | > 100 µM | > 100 µM | > 100 µM |
